From patent US5003011A, “Therapeutic decapeptides” (The Administrators of the Tulane Educational Fund, priority 1989, dated 1991)
Numbered stars: 1 amine (or outer) side, 2 acyl side, 3 side chain; on linkers, the order of the positions; unused ones are H or OH. Square brackets hold non-standard residues; d marks the D form. Peptide text beside a SMILES is read from it. X1 = O=C([C@@H](CCCCNC1CCCC1)N[*:1])[*:2]; X2 = O=C([C@H](CCCCNC1CCCC1)N[*:1])[*:2]; d2Nal = N[C@H](Cc1ccc2ccccc2c1)C(=O)O

Assay: Body weight ratio (FBW/IBW) in the MCF-7 subrenal capsule assay
Type: in vivo, mice
From the text: Female CDF-1 mice were implanted with a human mammary tumor (MCF-7) underneath the kidney capsules on day 0. […] The negative control group received vehicle only and the positive control was ovariectomized on day 0.

[1] = Table 2, 100 μg/inj. s.c., QDO5

In the case of CC(C)[C@@H]1NC(=O)[C@H](CCCCN)NC(=O)[C@@H](Cc2c[nH]c3ccccc23)NC(=O)[C@H](Cc2ccc(O)cc2)NC(=O)[C@@H](NC(=O)[C@H](N)Cc2ccc3ccccc3c2)CSSC[C@@H](C(=O)N[C@H](C(N)=O)[C@@H](C)O)NC1=O [BIM-23014C, reference compound], the “FBW/IBW = Final Body Weight/Initial Body Weight” value (Table 3, 2 μg/inj. s.c., QDO5, b.i.d.) is reported as 1.00, the “FBW/IBW = Final Body Weight/Initial Body Weight” value (Table 3, 10 μg/inj. s.c., QDO5, b.i.d.) is reported as 0.99 and the “FBW/IBW = Final Body Weight/Initial Body Weight” value (Table 3, 50 μg/inj. s.c., QDO5, b.i.d.) is reported as 0.98.
With CC(C)C[C@H](NC(=O)[C@@H](Cc1c[nH]c2ccccc12)NC(=O)[C@H](Cc1ccc(O)cc1)NC(=O)[C@H](CO)NC(=O)[C@H](Cc1c[nH]c2ccccc12)NC(=O)[C@H](Cc1c[nH]cn1)NC(=O)[C@@H]1CCC(=O)N1)C(=O)N[C@@H](CCCNC(=N)N)C(=O)N1CCC[C@H]1C(=O)NCC(N)=O [BIM-21003, reference compound] the “FBW/IBW = Final Body Weight/Initial Body Weight” value [1] was 1.04.
For CC(=O)N[C@H](Cc1ccc2ccccc2c1)C(=O)N[C@H](Cc1ccc(Cl)cc1)C(=O)N[C@H](Cc1ccccc1)C(=O)N[C@@H](CO)C(=O)N[C@@H](Cc1ccc(O)cc1)C(=O)N[C@H](CCCNC(=N)N)C(=O)N[C@@H](Cc1ccccc1)C(=O)N[C@@H](CCCNC(=N)N)C(=O)N1CCC[C@H]1C(=O)N[C@H](C)C(N)=O [BIM-21009] (HELM PEPTIDE1{[ac].[O=C([C@@H](Cc1ccc2ccccc2c1)N[*:1])[*:2]].[O=C([C@@H](Cc1ccc(Cl)cc1)N[*:1])[*:2]].[dF].S.Y.[dR].F.R.P.[dA].[am]}$$$$V2.0), the “FBW/IBW = Final Body Weight/Initial Body Weight” value (Table 2, 1 μg/inj. s.c., QDO5) was 0.98 and the “FBW/IBW = Final Body Weight/Initial Body Weight” value (Table 2, 10 μg/inj. s.c., QDO5) was 0.99.
With CC(=O)N[C@H](Cc1ccc2ccccc2c1)C(=O)N[C@H](Cc1ccccc1)C(=O)N[C@H](Cc1ccccc1)C(=O)N[C@@H](CO)C(=O)N[C@@H](Cc1ccccc1)C(=O)N[C@H](CCCNC(=N)N)C(=O)N[C@@H](CC(C)C)C(=O)N[C@@H](CCCNC(=N)N)C(=O)N1CCC[C@H]1C(=O)N[C@H](C)C(N)=O [BIM-21024] (HELM PEPTIDE1{[ac].[O=C([C@@H](Cc1ccc2ccccc2c1)N[*:1])[*:2]].[dF].[dF].S.F.[dR].L.R.P.[dA].[am]}$$$$V2.0) the “FBW/IBW = Final Body Weight/Initial Body Weight” value (Table 3, 25 μg/inj. s.c., QDO5) was 1.00.
For CC(=O)N[C@H](Cc1ccc2ccccc2c1)C(=O)N[C@H](Cc1ccc(Cl)cc1)C(=O)N[C@H](Cc1c[nH]c2ccccc12)C(=O)N[C@@H](CO)C(=O)N[C@@H](Cc1ccc(O)cc1)C(=O)N[C@H](CCCNC(=N)N)C(=O)N[C@@H](Cc1ccccc1)C(=O)N[C@@H](CCCNC(=N)N)C(=O)N1CCC[C@H]1C(=O)N[C@H](C)C(N)=O [BIM-21023] (HELM PEPTIDE1{[ac].[O=C([C@@H](Cc1ccc2ccccc2c1)N[*:1])[*:2]].[O=C([C@@H](Cc1ccc(Cl)cc1)N[*:1])[*:2]].[dW].S.Y.[dR].F.R.P.[dA].[am]}$$$$V2.0), the “FBW/IBW = Final Body Weight/Initial Body Weight” value (Table 3, 25 μg/inj. s.c., QDO5) was 1.01.
For CC(=O)N[C@H](Cc1ccc2ccccc2c1)C(=O)N[C@H](Cc1ccccc1)C(=O)N[C@H](Cc1ccccc1)C(=O)N[C@@H](CO)C(=O)N[C@@H](Cc1ccc(O)cc1)C(=O)N[C@H](CCCCNCc1ccccc1)C(=O)N[C@@H](Cc1ccccc1)C(=O)N[C@@H](CCCNC(=N)N)C(=O)N1CCC[C@H]1C(=O)N[C@H](C)C(N)=O [BIM-21025] (HELM PEPTIDE1{[ac].[O=C([C@@H](Cc1ccc2ccccc2c1)N[*:1])[*:2]].[dF].[dF].S.Y.[O=C([C@@H](CCCCNCc1ccccc1)N[*:1])[*:2]].F.R.P.[dA].[am]}$$$$V2.0), the “FBW/IBW = Final Body Weight/Initial Body Weight” value (Table 3, 25 μg/inj. s.c., QDO5) was 0.97.
In the case of CC(=O)N[C@H](Cc1ccc2ccccc2c1)C(=O)N[C@H](Cc1ccccc1)C(=O)N[C@H](Cc1ccccc1)C(=O)N[C@@H](CO)C(=O)N[C@@H](Cc1ccc(O)cc1)C(=O)N[C@H](CCCCNC1CCCC1)C(=O)N[C@@H](Cc1ccccc1)C(=O)N[C@@H](CCCCNC1CCCC1)C(=O)N1CCC[C@H]1C(=O)N[C@H](C)C(N)=O [BIM-21026] (Ac-[d2Nal][dF][dF]SY[X1]F[X2]P[dA]-NH2), the “FBW/IBW = Final Body Weight/Initial Body Weight” value (Table 3, 25 μg/inj. s.c., QDO5) is reported as 1.01.
In the case of CC(C)C[C@H](NC(=O)[C@@H](Cc1ccccc1)NC(=O)[C@H](Cc1ccc(O)cc1)NC(=O)[C@H](CO)NC(=O)[C@H](Cc1c[nH]c2ccccc12)NC(=O)[C@H](Cc1c[nH]cn1)NC(=O)[C@@H]1CCC(=O)N1)C(=O)N[C@@H](CCCNC(=N)N)C(=O)N1CCC[C@H]1C(=O)NCC(N)=O [BIM-21006, reference compound], the “FBW/IBW = Final Body Weight/Initial Body Weight” value [1] is reported as 0.99.
With CC(=O)N[C@H](Cc1ccc2ccccc2c1)C(=O)N[C@H](Cc1ccccc1)C(=O)N[C@H](Cc1ccccc1)C(=O)N[C@@H](CO)C(=O)N[C@@H](Cc1ccc(O)cc1)C(=O)N[C@H](CCCNC(=N)N)C(=O)N[C@@H](Cc1ccccc1)C(=O)N[C@@H](CCCNC(=N)N)C(=O)N1CCC[C@H]1C(=O)N[C@H](C)C(N)=O [BIM-21011] (HELM PEPTIDE1{[ac].[O=C([C@@H](Cc1ccc2ccccc2c1)N[*:1])[*:2]].[dF].[dF].S.Y.[dR].F.R.P.[dA].[am]}$$$$V2.0) the “FBW/IBW = Final Body Weight/Initial Body Weight” value (Table 2, 1 μg/inj. s.c., QDO5) was 0.98, the “FBW/IBW = Final Body Weight/Initial Body Weight” value (Table 2, 10 μg/inj. s.c., QDO5) was 0.99 and the “FBW/IBW = Final Body Weight/Initial Body Weight” value (Table 2, 15 μg/inj. s.c., QDO5) was 0.99.
